# Residues, ends and D or L forms follow the SMILES beside them.
# Legend:
# human erythrocytes = type: cell-based; conditions: 25 µM, pH 7.4
# Protocol: Hemolytic activity was assayed as described by Aboudy et al. with slight modifications; 3 ml of freshly prepared human erythrocytes was washed with isotonic PBS, pH 7.4, until the color of the supernatant turned clear. The washed erythrocytes were then diluted to a final volume of 20 ml with the same buffer. Peptide samples (10 µl), serially diluted in PBS, were added to 190 µl of the cell suspension in microcentrifuge tubes. Following gentle mixing, the tubes were incubated at 37°C for 30 min and then centrifuged at 4,000×g for 5 min. The supernatant (100 µl) was removed to a new tube and the absorbance at 567 nm was determined. The relative optical density, as compared with that of the cell suspension treated with 0.2% Triton X-100, was defined as percentage of hemolysis. The hemolysis percentage was calculated using the following equation: percentage hemolysis = [(Abs 567 nm in the peptide solution – Abs 567 nm in PBS)/(Abs 567 nm in 0.2% Triton X-100 – Abs 567 nm in PBS)]×100.
# (§1) (B,C) In vitro cytotoxicity of peptides.
# [1] = test system: normal cells (HaCat, BJ and NIH 3T3); assay: Confocal laser scanning microscopy of FITC-labeled peptide uptake, normal cells; type: cell-based, human, mouse; conditions: FITC-labeled peptide 5 µM, 30 min, 37°C, live unfixed cells
# Protocol: (§2) To investigate the cell-penetrating ability and the intracellular distribution of the internalized peptides, live confocal microscopy was performed on three cancer lines (HeLa, HCT116 and B16/F10) and three normal cell lines (HaCat, BJ and NIH 3T3). Briefly, cells (2×10^5) were plated on a glass coverslip placed in a 6-well plate, grown overnight, and then incubated with FITC-labeled peptides (5 µM for each cell line) for 30 min. The cells were then rinsed three times with phosphate buffered saline (PBS, pH 7.4), and mounted on microscope slides with fluorescence mounting solution (Dako Corp, Carpinteria, CA). Colocalization of BR2 with lysosomes was observed by using LysoTracker Red DND-99 (Molecular Probe, Eugene, OR). To avoid the effects of fixation artifacts, involving both methanol and paraformaldehyde, cells were not fixed, [27]. The distribution of FITC-labeled peptides was analyzed using a confocal scanning laser Zeiss LSM 510 microscope (Jena, Germany) equipped with a 40× and 20× objective. Fluorophores were excited with an argon laser (488 nm) for FITC and a HeNe laser (543 nm) for LysoTracker Red.
# as §1
# [2] = test system: cancer cells (HeLa, HCT116 and B16/F10); assay: Confocal laser scanning microscopy of FITC-labeled peptide uptake, cancer cells; type: cell-based, human, mouse; conditions: FITC-labeled peptide 5 µM, 30 min, 37°C, live unfixed cells
# Protocol: as §2, §1
# [3] = test system: HCT116 cells (K-ras mutated cells); assay: Cell proliferation assay (MTT); type: cell-based, human; set-up: dose or concentration left out as unconfirmed; conditions: same concentrations as fusion proteins (Fig. S4:), 24 h
# Protocol: To assess the anti-proliferative activity of peptides and anti-Ras scFv fusion proteins, HCT116 cells (K-ras mutated cells) were seeded in 96-well plates at a density of 2×10^4 cells/well in 100 µL of DMEM supplemented with 10% FBS and cultured for 24 h at 37°C. […] Cell viability was measured with the 3-(4,5-dimethylthiazol-2-yl)-2,5-diphenyl tetrazolium bromide (MTT) assay using the CellTiter 96® Non-radioactive Cell Proliferation assay kit (Promega, Madison, WI) according to the manufacturer’s instructions. The absorbance of the solution was measured at 570 nm using a Microplate Reader (Bio-Rad). Cell viability was expressed as the percentage of viable cells treated with scFv or peptide-scFv fusion proteins compared to the PBS-treated control (100%). All experiments were done in triplicate.
# Figure 4 Intracellular uptake of peptides and anti-Ras scFv fusion proteins and their anti-proliferative activity. […] (B) Protein uptake was analyzed by Western blotting of fractionated lysates from HCT116 cells treated with PBS, anti-Ras scFv, BR2- or Tat-scFv fusion protein (each, 2 µM) at 37°C for 2 h. […] Cell proliferation was determined using the MTT assay. […]
# HCT116 cells were seeded in 96-well plates at a density of 2×10^4 cells/well in 100 μl of DMEM supplemented with 10% FBS and cultured for 24 h at 37°C. […] The absorbance of the solution was measured at 570 nm using a Microplate Reader (Bio-Rad). […]
# HeLa cells = type: cell-based, human; conditions: FACS
# Protocol: To evaluate the internalization of FITC-labeled peptides, HeLa cells were seeded onto 12-well plates at a density of 2×10^5 cells per well and incubated for 24 h. FITC-labeled peptides, at various concentrations ranging from […], were then incubated with the cells for 30 min at 37°C. To compare the cellular uptake of peptides, cancer and normal cells were treated with FITC-labeled peptides (each, 10 µM) and incubated for 30 min at 37°C. Following the incubation, cells were washed three times with ice-cold PBS to remove excess extracellular complexes. Next, the cells were treated with trypsin (1 mg/ml) for 10 min to remove any remaining peptides bound to the cell surface. After trypsinization, the cells were collected by centrifugation (1,000×g for 5 min), resuspended with 500 µl ice-cold 2% FBS/PBS containing propidium iodide (PI), and then immediately analyzed (10,000 events/sample) by fluorescence activated cell sorting (FACS).
# To understand further the cell-penetrating mechanism of peptides, the effects of temperature and metabolic inhibitors were examined. To elucidate the temperature dependency, HeLa cells were incubated at 4°C for 30 min prior to the addition of the peptides. Next, cells were treated with FITC-labeled peptides (each, 5 µM) at 4°C for 30 min. For the energy-depletion study, HeLa cells were preincubated with sodium azide (NaN3, 10 mM) at 37°C for 1 h and then incubated with FITC-labeled peptides (each, 5 µM) at 37°C for 30 min.
# To study the role of endocytosis in peptide uptake, cells were pretreated with several endocytosis inhibitors at 37°C for 1 h: (i) amiloride (5 mM), which is known to block macropinocytosis by inhibiting a sodium channel; (ii) nocodazole (100 ng/ml), which inhibits the clathrin-mediated pathway; and (iii) methyl-ß-cyclodextrin (MßCD, 5 mM), which inhibits lipid raft-mediated processes by depleting cholesterol from the plasma membrane. All inhibitors were purchased from Sigma (St. Louis, MO).
# To examine the effects of negatively charged components on the cell surface for peptide internalization, HeLa cells were pretreated with gangliosides (monosialoganglioside GM3 from canine blood), heparin sulfate, or sialic acid (Neu5Ac, all from Sigma) (20 µg/ml) for 30 min. For the inhibition of ganglioside biosynthesis, cells were pretreated with D-threo-1-phenyl-2-hexadecanoyl amino-3-morpholino-1-propanol (PPMP, 5 µM) for 48 h.
# For all of these experimental conditions, flow cytometry analyses were performed with live cells using a Becton Dickinson FACSCalibur flow cytometer (BD Biosciences, San Diego, CA). In each case, the fluorescence of 10,000 viable cells was acquired. Viable cells were gated based on a sideward and forward scatter. For data analysis, WinMDI software (Joe Trotter, Scripps Research Institute, La Jolla, CA) was used. The statistical significance was evaluated by Student’s t-test at a 95% confidence interval.
# Figure 2 BR2 specifically penetrates cancer cell membranes in a concentration-dependent manner. (A) Analysis of the cell-penetrating efficiency of each peptide in different cell types by flow cytometry. FITC-labeled Tat, BR1 and BR2 peptides (10 µM) were added to different cell types: HeLa, HCT116 and B16/F10 cancer cells and HaCat, BJ and NIH 3T3 normal cells. After 30 min of incubation at 37°C, the FITC-positive cells were counted by flow cytometry. Values represent the percentage of fluorescence-positive cells in the total cell population. (B) Quantitative assessment of cell penetration of each peptide by flow cytometry. HeLa cells were incubated with FITC-labeled peptides at concentrations of 1, 2, 5, or 10 µM for 30 min at 37°C. Afterwards the cells were washed with cold PBS and harvested and cellular fluorescence was analyzed by flow cytometry. […] Prior to analysis, extracellular fluorescence of surface bound peptides was removed by a trypsin treatment (1 mg/ml for 10 min). […]
compound,measurement,setting,value
"CC(C)C[C@H](NC(=O)CNC(=O)[C@H](C)NC(=O)[C@@H](N)CCCNC(=N)N)C(=O)N[C@@H](CCC(N)=O)C(=O)N[C@@H](Cc1ccccc1)C(=O)N1CCC[C@H]1C(=O)N[C@H](C(=O)NCC(=O)N[C@@H](CCCNC(=N)N)C(=O)N[C@@H](CC(C)C)C(=O)N[C@@H](CC(C)C)C(=O)N[C@@H](CCCNC(=N)N)C(=O)N[C@@H](CCCNC(=N)N)C(=O)N[C@@H](CC(C)C)C(=O)N[C@@H](CC(C)C)C(=O)N[C@@H](CCCNC(=N)N)C(=O)N[C@@H](CCCNC(=N)N)C(=O)N[C@@H](CC(C)C)C(=O)N[C@@H](CC(C)C)C(=O)N[C@@H](CCCNC(=N)N)C(=O)O)C(C)C [BR3, buforin IIb] (H-RAGLQFPVGRLLRRLLRRLLR-OH)",hemolysis,human erythrocytes,≥ 5%
RAGLQFPVGRLLR [BR1],cellular uptake (confocal microscopy),[1],negligible cellular uptake levels
same,cellular uptake (confocal microscopy),[2],negligible cellular uptake levels
"RKKRRQRRR [Tat, well-known CPP Tat (49–57), reference compound]",anti-proliferative activity of peptide alone,[3],did not show any detectable inhibitions
same,decrease of cellular uptake at 4°C compared to 37°C,"HeLa cells; FITC-labeled peptide 5 µM, 30 min at 4°C after preincubation at 4°C",31.6%
same,reduction of uptake by ATP depletion (sodium azide),"HeLa cells; NaN3 10 mM preincubation 1 h 37°C, then FITC-labeled peptide 5 µM 30 min 37°C",42.5%
same,effect of ganglioside synthesis inhibitor PPMP on peptide uptake,HeLa cells; PPMP 5 µM pretreatment 48 h,not
same,effect of exogenous gangliosides on peptide penetration,"HeLa cells; gangliosides (GM3) 20 µg/ml, 30 min",not affected
same,effect of exogenous heparin on peptide uptake,"HeLa cells; heparin 20 µg/ml, 30 min",severely reduced
same,effect of exogenous sialic acids on peptide penetration,"HeLa cells; sialic acid (Neu5Ac) 20 µg/ml, 30 min",not affected
